Data reported in the supplement of paper PMC11208160.

Assay: recombinant barcode read abundance after kanamycin selection (control-corrected) (log10(CPM+1)); higher = more efficient recombination; sequences stand for … in AGTGCAGAGAAAATCGGCCAGTTTTCTCTGCCTGCAGTCCGCATGCCGT…AGATTTATGCAGCGGACTGCCTTTCTCCCAAAGTGATAAACCGGACAGTATCATGGACCGGTTTTCCCGGTAATCCGTATTTGCAAGGTTGGTTTCACT; site = the 11-nt target
Method in brief: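 Duplicate cultures were plated either on chloramphenicol/ampicillin LB agar, serving as control, or on chloramphenicol/ampicillin/kanamycin with 0.1 mM IPTG. These came from a pooled E. coli library co-electroporated with a donor plasmid, each member pairing a target with an IS621 bridge RNA target-binding loop. Recombination efficiency equals averaged, control-corrected counts per million of recombinant-junction barcodes. It is listed as log10(CPM+1).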
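Note: IS621 recombinase and bridge RNA in Escherichia coli cells.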

Sequence	recombinant barcode read abundance (log10)
CTTCGGACTTGGGTTCTAACCTGTTGCTT (site GAGTCTCCTCC)	0.133
CTTCGGGCTTGGGTTCTAACCTGTTGCAA (site CTTCGGACTTT)	0.217
CTTCGGGCTTGGGTTCTAACCTGTTGCAA (site CTTCGGGCTTT)	0.915
CTTCGTCCTTGGGTTCTAACCTGTTGCGT (site CTTCGTCCTAA)	0.102
CTTCGTCCTTGGGTTCTAACCTGTTGCGT (site CTTCGTCCTAC)	1.59
CTTCGTCCTTGGGTTCTAACCTGTTGCGT (site CTTCGTCCTAG)	0.126
CTTCGTCCTTGGGTTCTAACCTGTTGCGT (site CTTCGTCCTAT)	0.797
CTTGCGACTTGGGTTCTAACCTGTTGCTT (site CTTGCGACTAA)	0.391
CTTGCGACTTGGGTTCTAACCTGTTGCTT (site TGCATAGCTTG)	0.0884
CTTGCTCCTTGGGTTCTAACCTGTTGCAT (site AGACGGACTTG)	0.0627
CTTGCTCCTTGGGTTCTAACCTGTTGCAT (site CTTGCTCCTAT)	0.227
CTTTAGTCTTGGGTTCTAACCTGTTGCTA (site AAAGGTCCTCT)	0.0491
CTTTAGTCTTGGGTTCTAACCTGTTGCTA (site CTTTAGTCTTA)	0.174
CTTTCACCTTGGGTTCTAACCTGTTGCCT (site CTTTCACCTAG)	0.547
CTTTCACCTTGGGTTCTAACCTGTTGCCT (site CTTTCGTCTAG)	0.0614
CTTTCGCCTTGGGTTCTAACCTGTTGCCT (site CTATCGCCTAG)	0.0688
CTTTCGCCTTGGGTTCTAACCTGTTGCCT (site CTCTCGCCTAG)	0.102
CTTTCGCCTTGGGTTCTAACCTGTTGCCT (site CTGTCGCCTAG)	0.0968
CTTTCGCCTTGGGTTCTAACCTGTTGCCT (site CTTTCGCCTAG)	0.0534
CTTTGCCCTTGGGTTCTAACCTGTTGCCT (site CATTGCCCTAG)	0.179
CTTTGCCCTTGGGTTCTAACCTGTTGCCT (site CCTTGCCCTAG)	0.0734
CTTTGCCCTTGGGTTCTAACCTGTTGCCT (site CGTTGCCCTAG)	0.0892

Sequence	recombinant barcode read abundance (log10)
CTTTGCCCTTGGGTTCTAACCTGTTGCCT (site CTTTGCCCTAG)	0.687
GAAAGGGCTTGGGTTCTAACCTGTTGCCT (site GAAAAGGCTAG)	0.183
GAAAGGGCTTGGGTTCTAACCTGTTGCCT (site GAAACGGCTAG)	0.0842
GAAAGGGCTTGGGTTCTAACCTGTTGCCT (site GAAAGGGCTAG)	0.566
GAAAGGGCTTGGGTTCTAACCTGTTGCCT (site GAAATGGCTAG)	0.0705
GAAATTCCTTGGGTTCTAACCTGTTGCCT (site GAAAATCCTAG)	0.148
GAAATTCCTTGGGTTCTAACCTGTTGCCT (site GAAACTCCTAG)	0.266
GAAATTCCTTGGGTTCTAACCTGTTGCCT (site GAAAGTCCTAG)	0.132
GAAATTCCTTGGGTTCTAACCTGTTGCCT (site GAAATTCCTAG)	0.371
GAACCTTCTTGGGTTCTAACCTGTTGCCT (site GAACCTTCTAG)	0.695
GAACCTTCTTGGGTTCTAACCTGTTGCCT (site GAACGATCTAG)	0.0234
GAACGACCTTGGGTTCTAACCTGTTGCTT (site GAACGACCTAA)	0.613
GAACGACCTTGGGTTCTAACCTGTTGCTT (site GAACGACCTCA)	0.0114
GAACGCTCTTGGGTTCTAACCTGTTGCTT (site GAACGCTCTAA)	0.876
GAACGCTCTTGGGTTCTAACCTGTTGCTT (site TGTAAGACTCT)	0.225
GAACGGGCTTGGGTTCTAACCTGTTGCGG (site GAACGGGCTCC)	1.33
GAACGGGCTTGGGTTCTAACCTGTTGCGG (site GGACGGGCTCT)	0.12
GAAGCTCCTTGGGTTCTAACCTGTTGCGT (site GAAGCTCCTAC)	2.81
GAAGCTCCTTGGGTTCTAACCTGTTGCGT (site GAGGCTCCTAC)	0.581
GAAGTAACTTGGGTTCTAACCTGTTGCCT (site GAAGTAACTAG)	1.18
GAAGTAACTTGGGTTCTAACCTGTTGCCT (site GACGTAACTAG)	0.194
GAAGTAACTTGGGTTCTAACCTGTTGCCT (site GAGGTAACTAG)	0.346

Sequence	recombinant barcode read abundance (log10)
GAAGTAACTTGGGTTCTAACCTGTTGCCT (site GATGTAACTAG)	0.0965
GAATATTCTTGGGTTCTAACCTGTTGCTT (site GAATATTCTAA)	0.206
GAATATTCTTGGGTTCTAACCTGTTGCTT (site GAATGTTCTAA)	0.0342
GAATCTACTTGGGTTCTAACCTGTTGCCT (site GAATCTACTAG)	0.512
GAATCTACTTGGGTTCTAACCTGTTGCCT (site GCATCTACTAG)	0.195
GAATCTACTTGGGTTCTAACCTGTTGCCT (site GGATCTACTAG)	0.896
GAATCTACTTGGGTTCTAACCTGTTGCCT (site GTATCTACTAG)	0.136
GAATCTACTTGGGTTCTAACCTGTTGCTT (site GAATCTACTAA)	0.095
GAATCTACTTGGGTTCTAACCTGTTGCTT (site GACTCTACTAA)	0.0804
GAATCTACTTGGGTTCTAACCTGTTGCTT (site GAGTCTACTAA)	0.122
GAATCTACTTGGGTTCTAACCTGTTGCTT (site GATTCTACTAA)	0.00713
GAATGGACTTGGGTTCTAACCTGTTGCGA (site CTCATATCTAA)	0.0913
GAATGGACTTGGGTTCTAACCTGTTGCGA (site GAATGGACTTC)	2.45
GACAAACCTTGGGTTCTAACCTGTTGCCT (site GACAAACCTAG)	0.433
GACAAACCTTGGGTTCTAACCTGTTGCCT (site GTCAAACCTAA)	0.00743
GACACAGCTTGGGTTCTAACCTGTTGCCT (site GAAACAGCTAG)	0.145
GACACAGCTTGGGTTCTAACCTGTTGCCT (site GACACAGCTAG)	1.26
GACACAGCTTGGGTTCTAACCTGTTGCCT (site GAGACAGCTAG)	0.118
GACACAGCTTGGGTTCTAACCTGTTGCCT (site GATACAGCTAG)	0.372
GACACTTCTTGGGTTCTAACCTGTTGCCT (site GACACTTCTAG)	0.133
GACACTTCTTGGGTTCTAACCTGTTGCCT (site GTCAATTCTAG)	0.0949
GACATATCTTGGGTTCTAACCTGTTGCTG (site GACATATCTCA)	0.403
